Source: PMC7053805 (Toxicology in vitro : an international journal published in …, 2019)
Like-named read-outs stand apart in the source and are kept apart here.

Assays:
[1] = smelter workers; ref Ellis et al. (1981); cited from earlier work
[2] = test system: Primary human renal proximal tubule epithelial cells (RPTECs); conditions: for total amount of cadmium assumed accumulated in RPTECs: estimated from measured uptake
[3] = Chip-to-human extrapolation; conditions: for predicted renal clearance/GFR ratio from the chip: Chip+Model, ETS=0
[4] = cited from earlier work
[5] = Rapid equilibrium dialysis; conditions: for protein binding in the culture media: serum-supplemented media, rapid equilibrium dialysis
[6] = serum
in vitro [7] = conditions: human
in vitro [8] = experiment: in vitro
[9] = human; cited from earlier work
[10] = human, indicated by in vivo renal clearance data; ref Contrepois et al., 1985; cited from earlier work
[11] = test system: canine renal tubule cells; conditions: ref MacKay et al., 1998, cited from earlier work
[12] = effluent compared against stock solutions
[13] = kidney tubule chip, adjusted for non-specific binding, both concentrations

Molecule: [Cl][Cd][Cl] [Cadmium, cadmium chloride]
- concentrations in human kidney [1]: up to 400 μg/g
- total amount of cadmium assumed accumulated in RPTECs ([2]; after 22 days at 0.05 μM): 3.2 µg/g
- total amount of cadmium assumed accumulated in RPTECs ([2]; after 22 days at 0.5 μM): 16.5 µg/g
- uptake/reabsorption within the kidney tubule chip [2, 12]: uptake
- reabsorption (loss) from adjusted Cout/Cin [2, 13]: 24-43%
- predicted renal clearance/GFR ratio from the chip ([3]; cadmium 0.05 μM (free 0.0145 μM)): 0.14±0.05
- predicted renal clearance/GFR ratio from the chip ([3]; cadmium 0.5 μM (free 0.209 μM)): 0.39±0.17
- back-calculated Cu/Cf in the chip ([3]; from in vivo modeled CLR/GFR ratio 0.26 (cadmium, lower concentration)): 68%
- back-calculated Cu/Cf in the chip ([3]; from in vivo modeled CLR/GFR ratio 0.29 (cadmium, higher concentration)): 71%
- geometric blood level ([4]; general population (≥1 year of age) in the USA, ref Agency for Toxic Substances and Disease Registry): ~ 0.002 μM
- Cmax ([4]; general population, Nigeria, ref Alli, 2015): ~100 nM
- Cmax ([4]; human occupational, Nigeria, ref Alli, 2015): ~1000 nM
- fraction protein-bound in the culture media ([5]; binding to serum proteins in culture media): up to 71%

Molecule: N.N.[Cl][Pt][Cl] [Cisplatin, cisplatin]
- recovery from effluent samples ([2]; cell-seeded chip, at equilibrium): ~100%
- uptake/reabsorption within the kidney tubule chip [2, 12]: little uptake
- Cmax ([4]; human, reported range, ref Verschraagen et al., 2003): 1400 to 13900 nM

Molecule: CN1CC(=O)NC1=N [Creatinine, creatinine]
- reabsorption (loss) from adjusted Cout/Cin ([2]; human): 0-5%
- fraction unbound [5]: 0.934 ± 0.06
- protein binding in the culture media [5]: minimal protein binding

Molecule: CNC(C)C1CCC(N)C(OC2C(N)CC(N)C(OC3OCC(C)(O)C(NC)C3O)C2O)O1 (stereo not drawn) [Gentamicin, gentamicin]
- uptake/reabsorption within the kidney tubule chip [2]: little uptake
- reabsorption (loss) from adjusted Cout/Cin ([2]; human): 0-5%
- net uptake by the RPTECs ([2]; tissue chip, on average, 200 and 600 μM): < 0.5%
- protein binding in the culture media [6]: minimal protein binding
- recovery (in vitro [7]): ~100%
- fraction unbound (in vitro [8]; Free fraction in cell culture media): 0.897 ± 0.005
- Cmax ([4]; human, in vivo): ~50000 nM
- serum concentrations ([4]; in vivo): 5.3 ± 1.3 µg/mL
- serum protein binding [9]: no serum protein binding
- re-absorption in vivo [10]: around 20%

Molecule: O=C(O)C(F)(F)C(F)(F)C(F)(F)C(F)(F)C(F)(F)C(F)(F)C(F)(F)F [PFOA, perfluorooctanoic acid]
- uptake/reabsorption within the kidney tubule chip [2, 12]: uptake
- reabsorption (loss) from adjusted Cout/Cin [2, 13]: 3-13%
- fraction unbound (in vitro [8]): 0.986 ± 0.149
- blood levels ([4]; occupationally exposed subjects, ref ATSDR, 2018): ≤ 24.2 µM
- protein binding in the culture media [5]: minimal protein binding

Molecule: inulin
- recovery in luminal effluent ([11]; bioreactor with confluent cells): ≥ 98.9%
- recovery in luminal effluent ([11]; blank devices): ≤ 7.4%
